This is an account of results in US20240252651A1, “METHOD OF DELIVERING NUCLEIC ACIDS INTO CELLS” (GUANGZHOU LIDE BIOMEDICINE TECHNOLOGY CO., LTD., priority 2021, published 2024).

“Also recorded” adds a separate entry of the source.

Series [1] deals with Hela cells. Put plainly: Transfection of GFP-expressing plasmid DNA in Hela cells (flow cytometer). As to conditions: plasmid DNA 0.5 μg/well, material 0.25 to 8 μg/well (dosages per FIG. 4), 24 h. In kind it is cell-based, human. The method, then: In this experiment, with GFP-expressing plasmid DNA as a reporter gene, a gene transfection efficiency of a cationic lipid analog material in Hela cells was detected. A specific method was as follows:
Hela cells were inoculated in a 24-well plate and cultured in an incubator for 12 h; each of different cationic lipid analog materials (0.25 μg/well to 8 μg/well) was mixed with GFP-expressing plasmid DNA (0.5 μg/well) in 40 μL of a sodium acetate buffer (25 mM, pH 5.2), and resulting mixtures each were allowed to stand for 10 min and then diluted with 460 μL of an Opti-MEM medium to obtain plasmid DNA-loaded cationic lipid analog complex particle solutions; a medium for the Hela cells in the plate was removed, then the HeLa cells were washed once with PBS, and the complex particle solutions were added; and the cells were cultured for 24 h, and then a plasmid DNA transfection efficiency in cells was analyzed by a flow cytometer. A commercial gene transfection reagent Lipofectamine 2000 was adopted as a positive control.
In general terms: A flow cytometer gives signals particle by particle.

For series [2], the system named is Hela cells. Put plainly: Transfection of luciferase-expressing plasmid DNA in HeLa cells (luciferase expression). In kind it is cell-based, human. As to conditions: plasmid DNA 0.5 μg, 24 h, luciferase expression level, FIG. 5. The method, then: In this example, with luciferase-expressing plasmid DNA as a reporter gene, a gene transfection efficiency of a cationic lipid analog material in HeLa cells was detected. A specific operation method was as follows: Hela cells were inoculated in a 96-well plate and cultured in an incubator for 12 h; each of different cationic lipid analog materials was mixed with luciferase-expressing plasmid DNA (0.5 μg) in 40 μL of a sodium acetate buffer (25 mM, pH 5.2), and resulting mixtures each were allowed to stand for 10 min and then diluted with 460 μL of an Opti-MEM medium to obtain plasmid DNA-loaded cationic lipid analog complex particle solutions; a medium for the Hela cells in the plate was removed, then the Hela cells were washed once with PBS, and the complex particle solutions were added in a volume of 125 μL; the cells were cultured for 24 h, then a resulting culture supernatant was discarded, and the cells were fully lysed; and a substrate was added at 50 μl/well, and an expression level of luciferase was detected by a multi-mode microplate reader.

Series [3] deals with DC 2.4 cells. The series can be described thus: Transfection of eGFP-mRNA in DC 2.4 cells (FCM and LSCM). As to conditions: mRNA 0.2 μg/well, material 0.25 to 2 μg/well (dosages per FIG. 7), 24 h, FIG. 7-9. The format is cell-based, mouse. The method, then: In this experiment, with eGFP-mRNA as model mRNA, an mRNA transfection efficiency of a cationic lipid analog material in DC 2.4 cells was detected. A specific operation method was as follows:
DC 2.4 cells were inoculated in a 48-well plate and cultured in an incubator for 12 h; each of different cationic lipid analog materials (0.25 μg/well to 2 μg/well) was mixed with cGFP-expressing mRNA (0.2 μg/well) in 20 μL of a sodium acetate buffer (25 mM, pH 5.2), and resulting mixtures each were allowed to stand for 10 min and then diluted with 230 μL of a Opti-MEM medium to obtain mRNA-loaded complex particle solutions; a medium for the […] were washed once with PBS, and the complex particle solutions were added; and the cells were cultured for 24 h, an mRNA transfection efficiency in cells was observed by FCM and LSCM. A commercial gene transfection reagent Lipofectamine 2000 was adopted as a positive control.

Series [4] deals with Hela cells. The series can be described thus: Cytotoxicity by MTT experiment in Hela cells. In kind it is cell-based, human. As to conditions: material 1 μg/ml, 4 h exposure then 20 h culture, FIG. 11. The method, then:
In this experiment, I2R2C16A1, I2R2C17A1, I2R2C18A1, I2R2C19A1, and I2R2C20A1 with high transfection efficiencies were selected as representative cationic lipid analog materials, and the toxicity of cationic lipid analogs for Hela cells was detected by an MTT experiment. A specific experimental method was as follows: HeLa cells were inoculated in a 96-well plate and cultured in an incubator for 12 h, then a medium was removed, and a cationic lipid analog material was added at 1 μg/ml; the cells were cultured for 4 h, then the material was washed away and replaced with DMEM; and the cells were cultured for 20 h, and finally cell viability was detected by MTT.

Series [5] relates to A549 cells (A549-Luc). The series can be described thus: siRNA transfection, luciferase gene silencing in A549-Luc cells. The format is cell-based, human. As to conditions: final siRNA 100 nM, material 0.5 to 3 μg/well, 48 h, FIG. 10. The method, then: In this experiment, with I2R2C18-1A1, I2R3C18-1A1, I2R2C18-2A1, and I2R3C18-2A1 as representative cationic lipid analog materials, siRNA transfection and delivery effects of the cationic lipid analog materials were detected in A549 cells (A549-Luc). A specific operation method was as follows:
Luciferase-expressing A549 cells (A549-Luc) were inoculated in a 96-well plate and cultured in an incubator for 12 h; each of different materials (0.5 μg/well to 3 μg/well) was mixed with siRNA in 40 μL of a sodium acetate buffer (25 mM, pH 5.2), and resulting mixtures each were allowed to stand for 10 min and then diluted with 460 μL of an Opti-MEM medium to obtain siRNA-loaded complex particle solutions (final siRNA concentration was 100 nM); a medium for the A549-Luc cells in the plate was removed, then the A549-Luc cells were washed once with PBS, and the complex particle solutions each were added in a volume of 125 μL; the cells were cultured for 48 h, then a resulting culture supernatant was discarded, and the cells were fully lysed; and a substrate was added at 50 μl/well, and an expression level of luciferase was detected by a multi-mode microplate reader.

Consider `CCCCCCCCCCCCCCCC(=O)N(CCN(C)C)C(C(=O)NCCOCCOCCNC(=O)C(C(C)C)N(CCN(C)C)C(=O)CCCCCCCCCCCCCCC)C(C)C` (stereo not shown) [I2R1C16A1], for which the “transfection efficiency of GFP-expressing plasmid DNA, compared with commercial transfection reagent Lipofectamine 2000” value in series [1] is listed as “reaches or is higher than; also recorded: equivalent to or higher than”. For the same molecule, the “transfection efficiency of luciferase-expressing plasmid DNA, compared with Lipofectamine 2000” value in series [2] was “equivalent to or higher than”. The “mRNA transfection efficiency (eGFP-mRNA), compared with Lipofectamine 2000” value in series [3] was “high transfection efficiency; also recorded: equivalent to or higher than”.
On to `CCCCCCCC/C=C\CCCCCCCC(=O)N(CCN(C)C)C(C(=O)NCCOCCOCCNC(=O)C(C(C)C)N(CCN(C)C)C(=O)CCCCCCC/C=C\CCCCCCCC)C(C)C` (stereo not shown) [I2R1C18-1A1], for which the “transfection efficiency of GFP-expressing plasmid DNA, compared with commercial transfection reagent Lipofectamine 2000” value in series [1] is recorded as “reaches or is higher than; also recorded: equivalent to or higher than”. For the same molecule, in series [2], the “transfection efficiency of luciferase-expressing plasmid DNA, compared with Lipofectamine 2000” value is “equivalent to or higher than”. Moreover, the “mRNA transfection efficiency (eGFP-mRNA), compared with Lipofectamine 2000” value in series [3] was “high transfection efficiency; also recorded: equivalent to or higher than”.
Turning to `CCCCCCCCCCCCCCCC(=O)N(CCCN(C)C)C(C(=O)NCCOCCOCCNC(=O)C(C(C)C)N(CCCN(C)C)C(=O)CCCCCCCCCCCCCCC)C(C)C` (stereo not shown) [I2R2C16A1], in series [1], the “transfection efficiency of GFP-expressing plasmid DNA, compared with commercial transfection reagent Lipofectamine 2000” value was “reaches or is higher than; also recorded: equivalent to or higher than”. Moreover, in series [2], the “transfection efficiency of luciferase-expressing plasmid DNA, compared with Lipofectamine 2000” value is “equivalent to or higher than”. Also, the “mRNA transfection efficiency (eGFP-mRNA), compared with Lipofectamine 2000” value in series [3] was “high transfection efficiency; also recorded: equivalent to or higher than”. Besides, in series [4], the “cytotoxicity (cell viability by MTT)” value is recorded as “low cytotoxicity”.
As to `CCCCCCCC/C=C\CCCCCCCC(=O)N(CCCN(C)C)C(C(=O)NCCOCCOCCNC(=O)C(C(C)C)N(CCCN(C)C)C(=O)CCCCCCC/C=C\CCCCCCCC)C(C)C` (stereo not shown) [I2R2C18-1A1], the “transfection efficiency of GFP-expressing plasmid DNA, compared with commercial transfection reagent Lipofectamine 2000” value in series [1] is listed as “reaches or is higher than; also recorded: equivalent to or higher than”. Also, in series [2], the “transfection efficiency of luciferase-expressing plasmid DNA, compared with Lipofectamine 2000” value is recorded as “equivalent to or higher than”. Besides, the “mRNA transfection efficiency (eGFP-mRNA), compared with Lipofectamine 2000” value in series [3] is recorded as “high transfection efficiency; also recorded: equivalent to or higher than”. For the same molecule, in series [5], the “gene silencing efficiency as a function of material dosage” value (“gene silencing efficiency as a function” for short) is “increases with the increase of a dosage” and the “siRNA transfection, silencing of the luciferase reporter gene” value (from here on “siRNA transfection, silencing”) is “efficient gene silencing; also recorded: can transfect siRNA into cells to specifically silence the expression of the luciferase reporter gene”.
As for `CCCCC/C=C\C/C=C\CCCCCCCC(=O)N(CCCN(C)C)C(C(=O)NCCOCCOCCNC(=O)C(C(C)C)N(CCCN(C)C)C(=O)CCCCCCC/C=C\C/C=C\CCCCC)C(C)C` (stereo not shown) [I2R2C18-2A1], the “transfection efficiency of GFP-expressing plasmid DNA, compared with commercial transfection reagent Lipofectamine 2000” value in series [1] is “reaches or is higher than; also recorded: equivalent to or higher than”. Further, the “transfection efficiency of luciferase-expressing plasmid DNA, compared with Lipofectamine 2000” value in series [2] is recorded as “equivalent to or higher than”. Besides, the “mRNA transfection efficiency (eGFP-mRNA), compared with Lipofectamine 2000” value in series [3] is listed as “high transfection efficiency; also recorded: equivalent to or higher than”. Further, in series [5], the “gene silencing efficiency as a function” value is reported as “increases with the increase of a dosage” and the “siRNA transfection, silencing” value is listed as “efficient gene silencing; also recorded: can transfect siRNA into cells to specifically silence the expression of the luciferase reporter gene”.
For the molecule `CCCCCCCCCCCCCCCCCC(=O)N(CCCN(C)C)C(C(=O)NCCOCCOCCNC(=O)C(C(C)C)N(CCCN(C)C)C(=O)CCCCCCCCCCCCCCCCC)C(C)C` (stereo not shown) [I2R2C18A1], in series [3], the “mRNA transfection efficiency (eGFP-mRNA), compared with Lipofectamine 2000” value is “high transfection efficiency; also recorded: equivalent to or higher than”. The “cytotoxicity (cell viability by MTT)” value in series [4] is recorded as “low cytotoxicity”.
In the case of `CCCCCCCCCCCCCCCCCCCC(=O)N(CCCN(C)C)C(C(=O)NCCOCCOCCNC(=O)C(C(C)C)N(CCCN(C)C)C(=O)CCCCCCCCCCCCCCCCCCC)C(C)C` (stereo not shown) [I2R2C20A1], the “cytotoxicity (cell viability by MTT)” value in series [4] was “low cytotoxicity”.
Regarding `CCCCCCCCCCCCCCCC(=O)N(CCCN(CC)CC)C(C(=O)NCCOCCOCCNC(=O)C(C(C)C)N(CCCN(CC)CC)C(=O)CCCCCCCCCCCCCCC)C(C)C` (stereo not shown) [I2R3C16A1], the “transfection efficiency of GFP-expressing plasmid DNA, compared with commercial transfection reagent Lipofectamine 2000” value in series [1] is given as “reaches or is higher than; also recorded: equivalent to or higher than”. In addition, the “transfection efficiency of luciferase-expressing plasmid DNA, compared with Lipofectamine 2000” value in series [2] is “equivalent to or higher than”. In addition, the “mRNA transfection efficiency (eGFP-mRNA), compared with Lipofectamine 2000” value in series [3] was “high transfection efficiency; also recorded: equivalent to or higher than”.
Take `CCCCC/C=C\C/C=C\CCCCCCCC(=O)N(CCCN(CC)CC)C(C(=O)NCCOCCOCCNC(=O)C(C(C)C)N(CCCN(CC)CC)C(=O)CCCCCCC/C=C\C/C=C\CCCCC)C(C)C` (stereo not shown) [I2R3C18-2A1]: in series [1], the “transfection efficiency of GFP-expressing plasmid DNA, compared with commercial transfection reagent Lipofectamine 2000” value is on record as “reaches or is higher than; also recorded: equivalent to or higher than”. Moreover, the “transfection efficiency of luciferase-expressing plasmid DNA, compared with Lipofectamine 2000” value in series [2] is “equivalent to or higher than”. For the same molecule, in series [3], the “mRNA transfection efficiency (eGFP-mRNA), compared with Lipofectamine 2000” value is given as “high transfection efficiency; also recorded: equivalent to or higher than”. Moreover, in series [5], the “gene silencing efficiency as a function” value is “increases with the increase of a dosage” and the “siRNA transfection, silencing” value is “efficient gene silencing; also recorded: can transfect siRNA into cells to specifically silence the expression of the luciferase reporter gene”.
For `CCCCCCCCCCCCCCCCCC(=O)N(CCCN(CC)CC)C(C(=O)NCCOCCOCCNC(=O)C(C(C)C)N(CCCN(CC)CC)C(=O)CCCCCCCCCCCCCCCCC)C(C)C` (stereo not shown) [I2R3C18A1], the “transfection efficiency of GFP-expressing plasmid DNA, compared with commercial transfection reagent Lipofectamine 2000” value in series [1] is listed as “reaches or is higher than; also recorded: equivalent to or higher than”. Further, the “transfection efficiency of luciferase-expressing plasmid DNA, compared with Lipofectamine 2000” value in series [2] is on record as “equivalent to or higher than”. The “mRNA transfection efficiency (eGFP-mRNA), compared with Lipofectamine 2000” value in series [3] is reported as “high transfection efficiency; also recorded: equivalent to or higher than”.
As to `CCCCC/C=C\C/C=C\CCCCCCCC(=O)N(CCC1CCCN1C)C(C(=O)NCCOCCOCCNC(=O)C(C(C)C)N(CCC1CCCN1C)C(=O)CCCCCCC/C=C\C/C=C\CCCCC)C(C)C` (stereo not shown) [I2R11C18-2A1], the “transfection efficiency of GFP-expressing plasmid DNA, compared with commercial transfection reagent Lipofectamine 2000” value in series [1] is reported as “reaches or is higher than; also recorded: equivalent to or higher than”. Also, the “transfection efficiency of luciferase-expressing plasmid DNA, compared with Lipofectamine 2000” value in series [2] is given as “equivalent to or higher than”. The “mRNA transfection efficiency (eGFP-mRNA), compared with Lipofectamine 2000” value in series [3] is “high transfection efficiency; also recorded: equivalent to or higher than”.
